This note sets out measurements from patent US20220218614A1, “IONIZABLE CATIONIC LIPIDS AND LIPID NANOPARTICLES, AND METHODS OF SYNTHESIS AND USE THEREOF” (Tidal Therapeutics, Inc., priority 2020, published 2022).

Data set [1] can be described thus: Hydrodynamic diameter and polydispersity of LNPs by dynamic light scattering (DLS), Zetasizer. The data set is classed as physicochemical. The following applies: insertion of anti-CD3 hSP34-PEG2k-DSPE conjugate. Here is the method:
(§1) Samples of the LNPs produced in Example 2 were characterized to determine the average hydrodynamic diameter, zeta potential, and mRNA content (total and dye-accessible). The hydrodynamic diameter was determined by dynamic light scattering (DLS) using a Zetasizer model ZEN3600 (Malvern Pananalytical, UK). The zeta potential was measured in 5 mM pH 5.5 MES buffer and 5 mM pH 7.4 HEPES buffer by laser Doppler electrophoresis using the Zetasizer.

Data set [2] can be described thus: Zeta potential of LNPs by laser Doppler electrophoresis in 5 mM pH 5.5 MES and 5 mM pH 7.4 HEPES buffer. The data set is classed as physicochemical. The following applies: pH 5.5 MES and pH 7.4 HEPES buffer. The protocol: as §1
The nature of data set [3]: Quant-iT RiboGreen RNA assay: dye accessible and total (Triton) mRNA content, encapsulation. Format: physicochemical. The note with it: Table 9: Lipid 2 and Lipid 6 LNP. The protocol: RNA content of the nanoparticles is measured using Thermo Fisher Quant-iT RiboGreen RNA Assay Kit. Dye accessible RNA, which includes both non-incorporated RNA and RNA that is near the surface of the nanoparticle, is measured by diluting the nanoparticles to approximately 1 μg/mL mRNA using HEPES buffered saline, and then adding Quant-iT reagent to the mixture. Total RNA content is measured by diluting the particles to 1 μg/mL mRNA using HEPES buffered saline, disrupting the nanoparticles by heating them to 60° C. for 30 minutes in HEPES buffered saline containing 0.5% Triton, and then adding Quant-It reagent. RNA is quantified by measuring fluorescence at 485/535 nm, and concentration is determined relative to a contemporaneously run RNA standard curve.

Data set [4] is described as follows: Apparent pKa of LNPs by TNS fluorescent probe. The note with it: LNP made with the named ionizable lipid; pH at 50% of maximum TNS fluorescence. The data set is classed as physicochemical. From the text: This example describes the fluorescent dye based method used for measurement of the apparent pKa of the lipid nanoparticles. Apparent pKa determines the nanoparticle surface charge under physiological pH conditions, typically a pKa value in the endosomal pH range (6-7.4) results in LNPs that are neutral or slightly charged at plasma or the extracellular space (pH 7.4) and become strongly positive under acidic endosomal environments. This positive surface charge drives fusion of the LNP surface with negatively charged endosomal membranes resulting in destabilization and rupture of the endosomal compartment and LNP escape into the cytosolic compartment, a critical step in cytosolic delivery of mRNA and protein expression via engagement of the cells ribosomal machinery.
The apparent pKa of LNPs made using ionizable Lipids 2, 5 (synthesized as described in example 1), 6 and 7 (synthesized using method analogous to Lipid 2, 5, respectively, except using diethyl amine instead of dimethyl amine to incorporate the tertiary amine head group) were determined by 6-(p-Toluidino)-2-naphthalenesulfonic acid (TNS) fluorescence measurement in aqueous buffers covering a range of pH values (pH 4-pH 10). TNS is non-fluorescent when free in solution, but which fluoresces strongly when associated with a positively charged lipid nanoparticle. At a pH values below the pKa of the nanoparticle, positive LNP surface charge results in dye recruitment at the particle interface resulting in TNS fluorescence. At pH values above the LNP pKa no fluorescence is observed. The apparent pKa of the LNP is reported as the pH at which the fluorescence is at 50% of its maximum, as determined using a four-point logistic curve fit.

In data set [5] the test system is primary human T-cells (CD3+ T cells). The data set can be described thus: In vitro LNP transfection of primary human T-cells (GFP, Cy5 or DiI, viability by FACS). The data set is classed as cell-based. From the text: This example describes the protocol used for in vitro LNP transfections in primary human T-cells. This method is used to assess LNP in vitro efficacy in relevant target cells (CD3+ T cells) by first transfecting the cells using LNPs loaded with mRNA encoding for a reporter gene, such as GFP mRNA, and then assessing transfection by measuring reporter gene expression by fluorescence-[…] cell sorting (FACS). Additionally, particle association with cells may be observed by in the same assay by labeling individual nanoparticle components, such as the mRNA, with a fluorescent dye, such as Cy5, and then observing cell/dye association by FACS.
CD3+ T cells were isolated from frozen peripheral blood mononuclear cells using an EasySep Human T Cell Isolation Kit on a RoboSep automated cell isolation system from […]. T cells were plated into a flat bottom 96-well plate in RPMI cell culture media supplemented with glutamax, 10% fetal bovine serum, and 40 ng/mL IL2. 100 μL of cell suspension was seeded per well at a density of 1M T cells/mL (100K T cells/well). Cells were allowed to rest for two hours in a 37° C. incubator, and then were transfected by gently adding 10 μL of a 22 μg/mL (by mRNA) nanoparticle suspension, resulting in a final mRNA concentration of 2 μg/mL. Cells were gently mixed with a pipette and then incubated for 24 hours in a 37° C. incubator. After incubation the cells were analyzed using an ThermoFisher Attune NXT flow cytometer. Cy5 was detected using a 638 nm laser with 670/14 nm filter. eGFP was detected using a 488 nm laser and a 530/30 nm filter. Data were analyzed using FlowJo software from BD biosciences. FACS data were first gated to exclude doublets and dead cells and then gated for GFP and Cy5. Gates for GFP+ and Cy5+were set such that a control sample (PBS treated T cells) was <0.1% positive.
CD3+ T cells were isolated from frozen peripheral blood mononuclear cells using an EasySep Human T Cell Isolation Kit on a RoboSep automated cell isolation system from […]. T cells were plated into a round bottom 96-well plate in RPMI cell culture media supplemented with glutamax, 10% fetal bovine serum, pen-strep, and 40 ng/mL IL-2. 100 μL of cell suspension was seeded per well at a density of 1M T cells/mL (100K T cells/well). Cells were allowed to rest for two hours in a 37° C. incubator, and then were transfected by gently adding 10 μL of a 22 μg/mL (by mRNA) nanoparticle suspension, resulting in a final mRNA concentration of 2 μg/mL (unless otherwise noted). Cells were gently mixed with a pipette and then incubated for 24 hours in a 37° C. incubator. After incubation the cells were diluted with FACS buffer (BD 554657) and analyzed using a BD Fortessa flow cytometer. Data were analyzed using FlowJo software from BD biosciences.

Data set [6] can be described thus: Freeze thaw stability of LNP formulations (storage at 4° C., −80° C. or flash frozen in liquid nitrogen; DLS). Format: physicochemical. The following applies: one freeze thaw cycle, relative to 4 C storage. Here is the method:
Following the preparation of the targeted LNP formulation, the formulation was split into two portions. One portion was exchanged into 40 mM pH 7.4 HEPES buffer, and the other portion was exchanged into 30 mM pH 7.4 Tris buffer. The buffer exchange was performed using a discontinuous diafiltration method where the LNP formulation sample was transferred into a centrifugal ultrafiltration device with […] MWCO regenerated cellulose membrane (Amicon Ultra-4, MilliporeSigma, Massachusetts, US), then diluted 10-fold with the exchange buffer, and concentrated back to the original volume by centrifuging at 500 rcf. This dilution and concentration step was repeated one additional time. The exchanged LNP samples were then divided into separate aliquots that were mixed with concentrated sodium chloride and sucrose solutions to provide the final freeze-thaw sample formulations. Samples of each freeze-thaw formulation were then stored at 4° C., frozen at −80° C., or flash frozen in liquid nitrogen. The samples were later thawed at room temperature and tested for size by DLS and in vitro T cell transfection.

For data set [7], the system named is human CD8 T cells. Description: Transfection of human CD8 T cells with Fab-targeted Cy5/GFP mRNA LNPs. Format: cell-based. The following applies: Lipid 8 LNP, Cy5/GFP mRNA approximately 2.5 μg/mL, approximately 24 hr, Fab conjugate post-inserted. Here is the method: LNPs were prepared using the mixing process described in Example 6, the buffer exchange process described in Example 21. hSP34 and TRX2 Fab-lipid conjugates generated from methods described in Example 4 and a non-T cell specific anti-HER2 lipid-conjugate (Nellis D F, Ekstrom D L, Kirpotin D B, Zhu J, Andersson R, Broadt T L, Ouellette T F, Perkins S C, Roach J M, Drummond D C, Hong K, Marks J D, Park J W and Giardina S L (2005) Preclinical manufacture of an anti-HER2 scFv-PEG-DSPE, liposome-inserting conjugate. 1. Gram-scale production and purification. Biotechnol Prog 21:205-220) were post-inserted at various densities (SP34 0.6-17 g/mol; TRX2 3-9 g/mol; anti-HER2 17 g/mol) into LNPs containing Lipid 8, Cy5 labeled GFP mRNA and GFP mRNA (1:9 Cy5:GFP mass ratio) by adding conjugate and LNPs together and heating the solution without mixing in a thermal cycler at 60 C for 60 min and cooled to 4° C. for 3-5 min. […] After transfection, LNP binding efficiency (Cy5) and transfection efficiency (GFP) was evaluated by flow cytometry. Supernatants were measured for human IFNγ concentration using a commercially available ELISA kit under manufacturers recommended conditions (R&D Systems Duoset). […]

[8] abbreviates: theoretical total mRNA 45 μg/mL.

Entries after “also recorded” stand apart in the source; their conditions may differ.

Take `CCCCC/C=C\C/C=C\CCCCCCCC(=O)OC[C@H](COC(=O)CCCN(CC)CC)OC(=O)CCCCCCC/C=C\C/C=C\CCCCC` [Lipid 6]: the “change in particle size and PDI upon conjugate insertion” value in data set [1] is “significantly greater size distribution changes compared to Lipid 12 and Lipid 13 LNPs; also recorded: moderate changes in particle size and PDI”. Further, the “LNP surface charge (zeta potential), in words” value in data set [2] is “greater positive surface charge relative to Lipid 12 and 13”. In addition, the “% Dye Accessible mRNA” value in data set [3] came out at 15%. For the same molecule, in data set [3] (setting [8]), the “Measured total (Triton method) mRNA” value turned out to be 40 µg/mL and the “Ribogreen Dye Accessible mRNA” value stood at 6 µg/mL. Further, the “apparent pKa of LNP (TNS)” value in data set [4] was roughly 7. Moreover, in data set [5] (after one freeze thaw cycle, relative to 4 C storage), the “T-cell transfection and cell association after freeze-thaw, in words” value is “retained function after being subjected to freeze-thaw stress”. The “GFP protein expression (% GFP+ cells, GFP MFI), in words” value in data set [5] (hSP34 targeted LNP with GFP mRNA, 24 hours) is recorded as “Dose dependent expression of GFP protein”. Besides, the “LNP association with cells (% Cy5+/Cy5 MFI or % DiI+/DiI MFI), in words” value in data set [5] (hSP34 targeted LNP, 24 hours) was “equally associated with cells”. The “T-cell viability / tolerability, in words” value in data set [5] (hSP34 targeted LNP, 24 hours, dose as in the value) was “well tolerated by T-cells at all LNP doses tested; also recorded: moderately higher viability at higher dose of 2 μg/mL”. In data set [6], the “LNP size and polydispersity after freeze-thaw, in words” value was “minor changes in particle size distributions after frozen storage at −80 C”.

As to Hu291: anti-CD3 Fab, SEQ ID NO: 4 and 5, the “transfection (% GFP+, GFP MFI) and binding (% Cy5+, Cy5 MFI), in words” value in data set [7] was “high levels of % Cy5+ T cells”.
